Tests used:
[1] = system: gastric acid secretion (histamine-stimulated); assay: Effects on Gastric Acid Secretion of Anesthesia Fistula Rat by Histamine; type: in vivo, rat (male SD); settings: 30 mg/kg, histamine infusion, acid output 1 to 4 hours after administration
Procedure: The aggressive factor inhibition action was evaluated from the effects on the gastric acid secretion of anesthesia fistula rats by histamine, while the protective factor potentiation action was evaluated from the effects observed in a hydrochloric acid-ethanol ulcer model. In the Tables, the column of test compounds indicates Example numbers where the compounds are prepared. Male SD rats (Japan Charles River Co., Ltd.) each weighing 180 to 200 g were fasted for 24 hours before celiotomy with etherrization. A feeding tube (fr. 3.5) for injecting test medicines was inserted into the duodenum, and the pylorus was ligatured. A polyethylene tube (inner diameter: 7 mm) was used in the anterior stomach and gastric fistula was performed. After washing the inside of the stomach with heated physiological salt solution (37° C.) several times, the body was closed. A tube with a fin was inserted into the caudal vein and was fastened with a tape and it was connected to a infusion pump (Harvard). The rats were enclosed in a KN Ballman II cage (Natsume Seisakusho). Gastric juice flowed from the fistula was collected with a […] one hour. Starting form one hour after the operation, histamine was continuously injected at a rate of 1.4 ml/hour through the caudal vein. Then, test compounds suspended in 0.5% sodium caboxy methyl cellulose (Na-CMC) were administered one hour after the start of the histamine injection. The gastric juice thus extracted in a period from one hour after the administration of the chemical to four hours after that was titrated by using an automatic titration aparatus (Kyoto Electronic) with 0.1N NaOH to adjust pH 7, and the quantity of the gastric juice was measured to obtain the total acid output. […] [formula]

[2] = system: ICR:Crj 5 week old male mice; assay: Toxicity test, repeated oral administration for 14 days; type: in vivo, mouse (ICR:Crj; settings: 500 mg/kg/day
Procedure: (§1) The compounds according to Examples 2, 7, 8 and 12 were respectively suspended in 3% gum arabic solution and continuously, forcedly and orally administrated to three ICR:Crj 5 week old male mice for 14 days at a dose of 500 mg/kg/day.

[3] = system: ulcer formation caused by hydrochloric acid-ethanol; assay: Hydrochloric Acid-Ethanol Ulcer Test; type: in vivo, rat (male SD); settings: 100 mg/kg, oral, 30 minutes before hydrochloric acid-ethanol; rat
Procedure: The aggressive factor inhibition action was evaluated from the effects on the gastric acid secretion of anesthesia fistula rats by histamine, while the protective factor potentiation action was evaluated from the effects observed in a hydrochloric acid-ethanol ulcer model. In the Tables, the column of test compounds indicates Example numbers where the compounds are prepared.
Male SD rats each weighing 170 to 190 g were fasted for 24 hours, and 1 ml of 150 mM hydrochloric acid-60% ethanol was orally administered to each rat. After one hour, rats were clubbed to death, and the stomach was extracted. 10 ml of 2% formalin solution was applied to the stomach for fixing for 10 minutes. The length (mm) of the injuries in the tunica mucosa taken place in the glandular stomach was measured under a stereoscopic microscope. The total length of the injuries of the individual was taken as the ulcer index.
Test compounds or control (1% Na-CMC) were orally administered in an amount of 0.5 ml/100 g, 30 minutes before the administration of hydrochloric acid-ethanol.

[4] = Acute toxicity test by oral administration; type: in vivo
Procedure: as §1

Row | Structure (SMILES) | Gastric acid secretion inhibition effect (%) [1] | death [2] | Ulcer Inhibition Rate(%) [3] | LD50 ([4]; mouse, in vivo, po) | LD50 value ([4]; acute, oral administration)
1 | CC(=O)OCCSCC(=O)NCCCOc1cccc(CN2CCCC2)c1 [Example 12, N-[3-[3-(1-pirrolidinylmethyl)phenoxy]propyl]-2-(2-acetoxyethyl-1-thio)acetamide] | 55.4% | No rat died | – | – | –
2 | O=C(CSCCO)NCCCOc1cccc(CN2CCCC2)c1 [Example 8, N-[3-[3-(1-pyrrolidinylmethyl)phenoxy]propyl]-2-(2-hydroxyethyl-1-thio)acetamide] | 70.9% | No rat died | – | – | –
3 | CN/C(=N/CCSCc1nc[nH]c1C)NC#N [Cimetidine, reference compound] | 32.3% | – | 22.7% | – | –
4 | O=C(CSCCO)NCCCOc1cccc(CN2CCCCC2)c1 [Example 2, N-[3-[3-(piperidinomethyl)phenoxy]propyl]-2-(2-hydroxyethyl-1-thio)acetamide] | 79.5% | No rat died | 72.5% | 2380 mg/kg | –
5 | O=C(CS(=O)(=O)CCO)NCCCOc1cccc(CN2CCCCC2)c1 [Example 7, N-[3-[3-(piperidinomethyl)phenoxy]propyl]-2-(2-hydroxyethylsulfonyl)acetamide] | 59.4% | No rat died | – | – | –
6 | O=C(CO)NCCCOc1cccc(CN2CCCCC2)c1 [Roxatidine, reference compound] | 68.8% | – | 69.4% | – | 755 mg/kg

Reference: patent publication US5192774A, “Substituted acetamide derivatives, process for their preparation and antiulcer drug containing same” (Zeria Pharmaceutical Co., Ltd., priority 1988, dated 1993)
